In data set [1] the test system is senescent human fibroblasts. The data set can be described thus: Cell death by CCK-8 in senescence-induced fibroblasts. Format: cell-based. As to conditions: 72 hours. As for the experimental part:
Human fibroblasts were cultured in a 6-well plate culture medium. Senescent cells were prepared by inducing senescence by culturing the fibroblasts in DMEM (containing 10% FBS) medium containing doxorubicin (100 ng/ml) and insulin-like growth factor 1 (IGF-1) (100 ng/ml) for 4 days. Then, the same medium was treated with a positive control material (ABT737, 1-10 uM) and the tea tree root extract (50-150 ppm) and cultured for 72 hours. The ABT737 is a Bcl-2 inhibitor and a representative senolytic. Young cells were treated with experimental materials in DMEM medium without inducing senescence and cultured for 72 hours. In order to confirm the senolytic efficacy of the treatment with the tea tree root extract, the medium was replaced with a medium diluted 1/100 with Cell counting kit-8 (CCK-8, dojindo), cultured for 1 hour, and then the absorbance was measured at 540 nm. Human fibroblasts were cultured in a 6-well plate culture medium. […] In order to confirm the senolytic efficacy of the material treated with the tea tree root extract, the medium was replaced with a medium diluted 1/100 with Cell counting kit-8 (CCK-8, dojindo), cultured for 1 hour, and then the absorbance was measured at 540 nm.

Data set [2] deals with young human fibroblasts. Kind of data set: Cell death by CCK-8 in young fibroblasts. Format: cell-based. The conditions noted are these: concentration of 50 ppm or higher, 72 hours. As for the experimental part: Human fibroblasts were cultured in a 6-well plate culture medium. Senescent cells were prepared by inducing senescence by culturing the fibroblasts in DMEM (containing 10% FBS) medium containing doxorubicin (100 ng/ml) and insulin-like growth factor 1 (IGF-1) (100 ng/ml) for 4 days. Then, the same medium was treated with a positive control material (ABT737, 1-10 uM) and the tea tree root extract (50-150 ppm) and cultured for 72 hours. The ABT737 is a Bcl-2 inhibitor and a representative senolytic. Young cells were treated with experimental materials in DMEM medium without inducing senescence and cultured for 72 hours.
In order to confirm the senolytic efficacy of the treatment with the tea tree root extract, the medium was replaced with a medium diluted 1/100 with Cell counting kit-8 (CCK-8, dojindo), cultured for 1 hour, and then the absorbance was measured at 540 nm.
Human fibroblasts were cultured in a 6-well plate culture medium. […]
In order to confirm the senolytic efficacy of the material treated with the tea tree root extract, the medium was replaced with a medium diluted 1/100 with Cell counting kit-8 (CCK-8, dojindo), cultured for 1 hour, and then the absorbance was measured at 540 nm.

`O=C(O[C@@H]1Cc2c(O)cc(O)cc2O[C@@H]1c1cc(O)c(O)c(O)c1)c1cc(O)c(O)c(O)c1` [EGCG, epigallocatechin gallate]: the “killing senescent cells in fibroblasts” value in data set [1] was “no effect”. In addition, the “cytotoxicity on young cells” value in data set [2] is given as “showed cytotoxicity”.
